Drawing on patent US9260425B2 (Genetech, Inc., priority 2011, dated 2016), this text covers IC50, Ki and EC50 for 23 compounds.

Like-named read-outs stand apart in the source and are kept apart here.

The IC50 is the midpoint of a concentration-inhibition curve. The term Ki denotes the dissociation constant of the complex between target and ligand, obtained from inhibition or displacement. A high value points to lower affinity. The EC50 is the concentration at which the effect is half-maximal.

The subject of experiment [1] is BaF3 parental cells. The experiment in a line: In vitro cell proliferation potency assay, BaF3 parental line with IL-3 (Cell Titer Glo). It is filed as cell-based, murine. The conditions noted are these: Mus musculus, 2 ng/mL mIL-3, incubated overnight, read-out: Prolif. BaF3 IL3 (IC50). On the procedure: (§1) In Vitro Cell Proliferation Potency Assays
(§2) BaF3 parental line was obtained from the DSMZ repository. BaF3 lines transfected with PIM-1 or PIM-2 were generated. Mouse IL-3 was purchased from R&D Systems. G418 was purchased from Clontech. Media for BaF3 parental line contained RPMI, 10% FBS, 2 mM L-Glutamine, 2 ng/mL mIL-3. Media for BaF3 PIM1 & 2 lines contained RPMI, 10% FBS, 2 mM L-Glutamine, […]. Media for MM1.S (multiple myeloma cells) line contained RPMI, 10% FBS, 2 mM L-Glutamine.
(§3) BaF3, a murine interleukin-3 dependent pro-B cell line, parental cells, BaF3 PIM1 cells, BaF3 PIM-2 cells, and MM1.S (multiple myeloma) cells were seeded at 2 k/well, 5 k/well, 5 k/well, and 10 k/well respectively, in a 384-well plate, at 45 μL/well. Test compound was added at 5 μL/well. BaF3 cells (parental and transfected) were incubated overnight, while MM1.S cells were incubated for 72 hours at 37° C., 5% CO2. Cell Titer Glo Reagent (Promega) was added at 50 μL/well, the plates were incubated for 30 minutes, and their luminescence read on an HT Analyst. IC50/EC50 values for the test compound were calculated.
For orientation: In ATP-based viability assays light output follows the ATP content of the culture.

The test system of experiment [2] is BaF3 PIM1 cells. Nature of the experiment: In vitro cell proliferation potency assay, BaF3 line transfected with PIM-1 (Cell Titer Glo). It is filed as cell-based, murine. The conditions noted are these: incubated overnight, read-out: Prolif. BaF3 PIM-1 (IC50). On the procedure: as §1
BaF3 parental line was obtained from the DSMZ repository. […] Mouse IL-3 was purchased from R&D Systems. G418 was purchased from Clontech. Media for BaF3 parental line contained RPMI, 10% FBS, 2 mM L-Glutamine, 2 ng/mL mIL-3. Media for BaF3 PIM1 & 2 lines contained RPMI, 10% FBS, 2 mM L-Glutamine, […]. Media for MM1.S (multiple myeloma cells) line contained RPMI, 10% FBS, 2 mM L-Glutamine.
as §3

For experiment [3], the target named is Pim-1 (Homo sapiens (Human), UniProt P11309). The experiment in a line: Pim kinase binding activity assay (Example 901), PIM-1 enzyme, Caliper microfluidic peptide phosphorylation. It is filed as biochemical. The conditions noted are these: 20 pM PIM-1, 10 μM ATP, 1 μM FAM-peptide, 90 minutes at room temperature. Put shortly:
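The readout was microfluidic mobility-shift separation of a FAM-tagged Pim-specific peptide, excited at 488 nm and read at 530 nm, with Ki calculated from percent conversion. Reactions held 20 pM PIM-1, 1 μM peptide and 10 μM ATP in pH 7.2 HEPES/MgCl2/DTT buffer, ran 90 min at room temperature and were stopped with EDTA.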

In experiment [4] the test system is MM1.S (multiple myeloma) cells. The experiment in a line: In vitro cell proliferation potency assay, MM1.S cells (Cell Titer Glo). The class given is cell-based. The note with it: Homo sapiens, 72 hours, read-out: Prolif. MM1S ATP (EC50). On the procedure:
as §1, §2, §3

Chain of Pim-1 (P11309 whole entry): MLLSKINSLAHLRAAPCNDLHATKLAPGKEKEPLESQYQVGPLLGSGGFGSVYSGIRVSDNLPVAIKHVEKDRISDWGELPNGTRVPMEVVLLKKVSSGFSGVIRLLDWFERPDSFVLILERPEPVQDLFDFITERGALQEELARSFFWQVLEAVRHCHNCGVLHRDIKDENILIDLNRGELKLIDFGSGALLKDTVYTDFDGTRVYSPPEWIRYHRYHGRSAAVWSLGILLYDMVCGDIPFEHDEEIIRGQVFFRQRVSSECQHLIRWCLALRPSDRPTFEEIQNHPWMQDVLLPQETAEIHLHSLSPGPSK

As to `c1ccc(-c2n[nH]c3cnc(-c4cccnc4)cc23)cc1` [Example 116, 3-phenyl-5-(pyridin-3-yl)-1H-pyrazolo[3,4-c]pyridine], the IC50 in experiment [1] amounted to 13700 nM.
With `Fc1ccccc1-c1n[nH]c2cnc(-c3cccnc3)cc12` [Example 117, 3-(2-fluorophenyl)-5-(pyridin-3-yl)-1H-pyrazolo[3,4-c]pyridine], the figures for the IC50 in experiment [1] and in experiment [2] (Mus musculus) were 12900 nM and 18800 nM, respectively.
As to `Cn1cc(-c2cc3c(-c4ccccc4F)n[nH]c3cn2)cn1` [Example 129, 3-(2-fluorophenyl)-5-(1-methyl-1H-pyrazol-4-yl)-1H-pyrazolo[3,4-c]pyridine], the half-inhibitory concentration (IC50) in experiment [1] was determined as 5600 nM; in experiment [2] (Mus musculus) it was 5200 nM. In experiment [3], the affinity corresponds to a Ki of 7.85 nM.
With `NC1CCN(c2cccc(-c3n[nH]c4cnc(-c5cccnc5)cc34)n2)CC1` [Example 144, 1-(6-(5-(pyridin-3-yl)-1H-pyrazolo[3,4-c]pyridin-3-yl)pyridin-2-yl)piperidin-4-amine], the IC50 in experiment [1] turned out to be 3300 nM; in experiment [2] (Mus musculus), 130 nM. Also, the EC50 in experiment [4] amounted to 2200 nM. For the same compound, the Ki in experiment [3] came out at 0.0839 nM.
For `NC1CCN(c2cncc(-c3cc4c(-c5ccccc5F)n[nH]c4cn3)n2)CC1` [Example 147, 1-(6-(3-(2-fluorophenyl)-1H-pyrazolo[3,4-c]pyridin-5-yl)pyrazin-2-yl)piperidin-4-amine] the same measures were 3900 nM, 368 nM, 60.4 nM and 0.121 nM.
The matching figures for `N[C@@H]1CCCN(c2cccc(-c3n[nH]c4cnc(-c5cccnc5)cc34)n2)C1` [Example 149, (R)-1-(6-(5-(pyridin-3-yl)-1H-pyrazolo[3,4-c]pyridin-3-yl)pyridin-2-yl)piperidin-3-amine]: 1500 nM, 261 nM, 166 nM and 0.027 nM.
Turning to `N[C@H]1CCCN(c2cncc(-c3cc4c(-c5ccccc5F)n[nH]c4cn3)n2)C1` [Example 152, (S)-1-(6-(3-(2-fluorophenyl)-1H-pyrazolo[3,4-c]pyridin-5-yl)pyrazin-2-yl)piperidin-3-amine], the IC50 in experiment [1] was 2700 nM; in experiment [2] (Mus musculus) it was 47.1 nM. Further, the EC50 in experiment [4] was found to be 631 nM.
In the case of `N[C@@H]1CCCN(c2cncc(-c3cc4c(-c5ccccc5F)n[nH]c4cn3)n2)C1` [Example 153, (R)-1-(6-(3-(2-fluorophenyl)-1H-pyrazolo[3,4-c]pyridin-5-yl)pyrazin-2-yl)piperidin-3-amine], the IC50 turned out to be 2500 nM in experiment [1] and 28 nM in experiment [2] (Mus musculus). Besides, in experiment [4], the EC50 came out at 436 nM.
With `N[C@H]1CCCN(c2cccc(-c3n[nH]c4cnc(-c5cccnc5)cc34)n2)C1` [Example 161, (S)-1-(6-(5-(pyridin-3-yl)-1H-pyrazolo[3,4-c]pyridin-3-yl)pyridin-2-yl)piperidin-3-amine], the half-maximal inhibitory concentration (IC50) in experiment [1] worked out at 1400 nM; in experiment [2] (Mus musculus), 731 nM. The EC50 in experiment [4] turned out to be 281 nM. Besides, the Ki in experiment [3] worked out at 0.0411 nM.
For `Cn1cc(-c2cc3c(-c4cccc(N5CCC[C@H](N)C5)n4)n[nH]c3cn2)cn1` [Example 173, (S)-1-(6-(5-(1-methyl-1H-pyrazol-4-yl)-1H-pyrazolo[3,4-c]pyridin-3-yl)pyridin-2-yl)piperidin-3-amine], the 50% inhibitory concentration (IC50) in experiment [1] stood at 5700 nM; in experiment [2] it was 251 nM. For the same compound, the concentration giving a half-maximal response (EC50) in experiment [4] stood at 376 nM.
As to `N[C@H]1CCN(c2cncc(-c3cc4c(-c5ccccc5F)n[nH]c4cn3)c2)C1` [Example 190, (S)-1-(5-(3-(2-fluorophenyl)-1H-pyrazolo[3,4-c]pyridin-5-yl)pyridin-3-yl)pyrrolidin-3-amine], the figures for the IC50 in experiment [1] and in experiment [2] (Mus musculus) were 1800 nM and 159 nM, respectively. In experiment [4], the EC50 came out at 67.2 nM. Further, the Ki in experiment [3] came to 0.27 nM.
For `NC1CCN(c2nc(-c3n[nH]c4cnc(-c5cccnc5)cc34)ccc2Cl)CC1` [Example 241, 1-(3-chloro-6-(5-(pyridin-3-yl)-1H-pyrazolo[3,4-c]pyridin-3-yl)pyridin-2-yl)piperidin-4-amine], the IC50 in experiment [1] was found to be 1300 nM; in experiment [2] (Mus musculus), 584 nM. Besides, the EC50 in experiment [4] stood at 57.3 nM. The affinity in experiment [3] corresponds to a Ki of 0.096 nM.
On to `N[C@H]1CCCN(c2cccc(-c3n[nH]c4cnc(-c5cccnc5)cc34)n2)CC1` [Example 248, (S)-1-(6-(5-(pyridin-3-yl)-1H-pyrazolo[3,4-c]pyridin-3-yl)pyridin-2-yl)azepan-4-amine], for which the values for the IC50 in experiment [1] and in experiment [2] (Mus musculus) were 1600 nM and 336 nM, respectively. Also, the EC50 in experiment [4] came to 201 nM. In experiment [3], the Ki was determined as 0.048 nM.
The matching figures for `N[C@@H]1CCCN(c2cccc(-c3n[nH]c4cnc(-c5cccnc5)cc34)n2)CC1` [Example 249, (R)-1-(6-(5-(pyridin-3-yl)-1H-pyrazolo[3,4-c]pyridin-3-yl)pyridin-2-yl)azepan-4-amine]: 2500 nM, 518 nM, 191 nM and 0.02 nM.
Consider `NC[C@H]1CCN(c2cccc(-c3n[nH]c4cnc(-c5cccnc5)cc34)n2)C1` [Example 270, (R)-(1-(6-(5-(pyridin-3-yl)-1H-pyrazolo[3,4-c]pyridin-3-yl)pyridin-2-yl)pyrrolidin-3-yl)methanamine], for which the 50% inhibitory concentration (IC50) in experiment [1] is 13100 nM; in experiment [2] (Mus musculus) it was 478 nM. Also, the half-maximal effective concentration (EC50) in experiment [4] was found to be 707 nM.
Regarding `C=Cc1ccc(-c2n[nH]c3cnc(-c4cccnc4)cc23)nc1N1CCC[C@H](N)C1` [Example 307, (S)-1-(6-(5-(pyridin-3-yl)-1H-pyrazolo[3,4-c]pyridin-3-yl)-3-vinylpyridin-2-yl)piperidin-3-amine], the IC50 in experiment [1] turned out to be 1400 nM; in experiment [2] (Mus musculus), 67.1 nM. In addition, in experiment [4], the 50% effective concentration (EC50) was 141 nM. The compound also showed a Ki in experiment [3] of 0.014 nM.
Consider `Cc1ccc(-c2n[nH]c3cnc(-c4cccnc4)cc23)nc1N1CC[C@@H](N)C1` [Example 316, (R)-1-(3-methyl-6-(5-(pyridin-3-yl)-1H-pyrazolo[3,4-c]pyridin-3-yl)pyridin-2-yl)pyrrolidin-3-amine], for which the values for the IC50 in experiment [1] and in experiment [2] (Mus musculus) were 1000 nM and 62.8 nM, respectively. The EC50 in experiment [4] was found to be 114 nM. Moreover, the affinity in experiment [3], expressed as Ki, was 0.0549 nM.
Regarding `N[C@H]1CCCN(c2cccc(-c3n[nH]c4cnc(-c5cncs5)cc34)n2)C1` [Example 349, (S)-1-(6-(5-(thiazol-5-yl)-1H-pyrazolo[3,4-c]pyridin-3-yl)pyridin-2-yl)piperidin-3-amine], the IC50 in experiment [1] turned out to be 3400 nM; in experiment [2] (Mus musculus), 681 nM. In addition, the EC50 in experiment [4] is 393 nM.
The matching figures for `N[C@@H]1CCCN(c2cccc(-c3n[nH]c4cnc(-c5cncs5)cc34)n2)C1` [Example 350, (R)-1-(6-(5-(thiazol-5-yl)-1H-pyrazolo[3,4-c]pyridin-3-yl)pyridin-2-yl)piperidin-3-amine]: 3600 nM, 188 nM and 287 nM.
Take `CCn1cc(-c2cc3c(-c4cccc(N5CCNCC5)n4)n[nH]c3cn2)cn1` [Example 356, 5-(1-ethyl-1H-pyrazol-4-yl)-3-(6-(piperazin-1-yl)pyridin-2-yl)-1H-pyrazolo[3,4-c]pyridine]: the IC50 in experiment [1] was 5400 nM; in experiment [2] (Mus musculus), 76.6 nM. In addition, the EC50 in experiment [4] is 638 nM. For the same compound, in experiment [3], the Ki stood at 0.073 nM.
In the case of `OCCN1CCCN(c2cccc(-c3n[nH]c4cnc(-c5cccnc5)cc34)n2)CC1` [Example 357, 2-(4-(6-(5-(pyridin-3-yl)-1H-pyrazolo[3,4-c]pyridin-3-yl)pyridin-2-yl)-1,4-diazepan-1-yl)ethanol], the IC50 in experiment [1] came to 4900 nM; in experiment [2] (Mus musculus), 709 nM. The EC50 in experiment [4] was 244 nM. The compound also gave an inhibition constant (Ki) in experiment [3] of 0.26 nM.
As for `COCCn1cc(-c2cc3c(-c4cccc(N5CCNCC5)n4)n[nH]c3cn2)cn1` [Example 382, 5-(1-(2-methoxyethyl)-1H-pyrazol-4-yl)-3-(6-(piperazin-1-yl)pyridin-2-yl)-1H-pyrazolo[3,4-c]pyridine], the half-maximal inhibitory concentration (IC50) came out at 17000 nM in experiment [1] and 274 nM in experiment [2] (Mus musculus). The concentration giving a half-maximal response (EC50) in experiment [4] came out at 3200 nM.
Turning to `Cc1cncc(-c2cc3c(-c4cccc(N5CCCNCC5)n4)n[nH]c3cn2)n1` [Example 522, 3-(6-(1,4-diazepan-1-yl)pyridin-2-yl)-5-(6-methylpyrazin-2-yl)-1H-pyrazolo[3,4-c]pyridine], the inhibitory constant (Ki) in experiment [3] is 0.019 nM.
